The subject of this assay is Orobanche ramosa L. Kind of assay: Germination inducer activity in Orobanche ramosa L. (germination rate of seeds). It counts as in vivo. The method, then:
In this Example, the germination inducer activity of Compound 1 on Orobanche ramosa L. was analyzed by measuring the germination rate. Orobanche ramosa L. is a parasitic plant of tomato, which is now classified as Phelipanche ramosa (L.) Pomel. The Orobanche ramosa L. used herein is a species that parasitizes tomatoes native to Portugal. Dried seeds of Orobanche ramosa L. were conditioned for one week in water from 20° C. to 26° C. in a dark and humid place. The compounds to be tested were each added in an amount of 2 mL to a Petri dish so as to give a final concentration of 1 μM or 100 nM (Compound 1), or 0.34 μM (GR24). After incubation from 20° C. to 26° C. in a dark and humid place for 1 week after the addition of the treatment solution, the germination rate was evaluated by counting the number of germinated seeds under a stereomicroscope.
In the table, “Germination” indicates the germination inducer activity of Compound 1. When the relative value of the germination rate was 4% or more, Compound 1 was marked with (+).

Take `COC(=O)[C@H](CCCCNC(=O)OC1C=C(C)C(=O)O1)NC(=O)OC(C)(C)C` (some centres unmarked) [Compound 1]: for the setting “1 μM or 100 nM”, the “germination inducer activity for Orobanche ramosa L.” value is “exhibited germination inducer activity”. Moreover, where the note is “Compound 1 at 1 μM or 100 nM, 20° C. to 26° C., dark, 1 week”, the Germination entry is “+ (When the relative value of the germination rate was 4% or more, Compound 1 was marked with (+))”.

The record behind these values is patent US20250031699A1, “Method for Controlling Parasitic Plants” (AJINOMOTO CO., INC., priority 2022, published 2025).
